Test systems include 786-0; BT-549; CAKI-1; DU-145; HOP-62; LOX IMVI; M14; MCF7; MDA-MB-231; NCI-H23; NCI-H460; NCI/ADR-RES; PC-3; SK-MEL-28; SK-MEL-5; SK-OV-3; SNB-19; SR; SW-620; UO-31.
Experiment in all cases: NCI anticancer screen, dose series, 48 h

The structures appear in SMILES notation.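 Values below derive from 48-hour exposures of cells grown in 96-well plates, with endpoints linearly interpolated between the two concentrations bracketing the appropriate inhibition level. GI50 marks 50% less growth.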 The source made the active and inactive calls. Rule as the data show it: active = GI50 up to about 1.1 µM and inactive = higher.

Regarding `C=C1C(=O)C[C@H]2C(=C)C(=O)O[C@@H]2C2C1CC[C@@]2(C)O` (some centres undefined), the GI50 was 19.9 µM (inactive) in the experiment with 786-0; 19.8 µM (inactive) in the experiment on BT-549; 16.7 µM (inactive) with CAKI-1; 73.3 µM (inactive) in the experiment on DU-145; 31.3 µM (inactive) with HOP-62; 17.5 µM (inactive) in the experiment on LOX IMVI. The GI50 in the experiment with M14 was 16.1 µM (inactive); in the experiment with MCF7, 16 µM (inactive); in the experiment on MDA-MB-231, 25.1 µM (inactive); with NCI-H23, 24.9 µM (inactive); in the experiment with NCI-H460 it was 18.8 µM (inactive); in the experiment with NCI/ADR-RES, 26.2 µM (inactive). Besides, the GI50 in the experiment on PC-3 is 30.6 µM (inactive); with SK-MEL-28, 27.4 µM (inactive); in the experiment with SK-MEL-5, 39.4 µM (inactive); with SK-OV-3, > 100 µM (inactive); in the experiment on SNB-19, > 100 µM (inactive); in the experiment on SR it was 27.1 µM (inactive). Also, the values for the GI50 with SW-620 and in the experiment on UO-31 were 23 µM (inactive) and 23.2 µM (inactive), respectively.
On to `BrCC[N+]12CC[N+](CCBr)(CC1)C2`, for which the GI50 is > 100 µM (inactive) with 786-0; > 100 µM (inactive) in the experiment on BT-549; > 100 µM (inactive) with CAKI-1; > 100 µM (inactive) in the experiment on DU-145; 39.1 µM (inactive) with HOP-62; > 100 µM (inactive) with LOX IMVI. Further, the GI50 in the experiment with M14, with MCF7, with MDA-MB-231, with NCI-H23, in the experiment on NCI-H460 and with NCI/ADR-RES was > 100 µM (inactive) throughout. The GI50 with PC-3, in the experiment with SK-MEL-28, in the experiment on SK-MEL-5, in the experiment on SK-OV-3, in the experiment on SNB-19 and in the experiment on SR was > 100 µM (inactive) throughout. The GI50 in the experiment on SW-620 and in the experiment on UO-31 was > 100 µM (inactive) throughout.
Consider `N=c1oc2ccccc2cc1C(=O)NC12CC3CC(CC(C3)C1)C2`, for which the GI50 in the experiment with 786-0 is 2.88 µM (inactive); in the experiment on BT-549, 18.2 µM (inactive); in the experiment on CAKI-1 it was 7.52 µM (inactive); in the experiment with DU-145, 13.2 µM (inactive); in the experiment on HOP-62, 22.6 µM (inactive); with LOX IMVI, 13.8 µM (inactive). For the same compound, the GI50 in the experiment with M14 is 25.7 µM (inactive); in the experiment on MCF7, 3.7 µM (inactive); in the experiment on MDA-MB-231, 20.1 µM (inactive); with NCI-H23, 27.4 µM (inactive); in the experiment with NCI-H460, 14.4 µM (inactive); with NCI/ADR-RES it was 24.2 µM (inactive). For the same compound, the GI50 with PC-3 was 17.8 µM (inactive); in the experiment on SK-MEL-28, 40.4 µM (inactive); in the experiment with SK-MEL-5, 21.2 µM (inactive); in the experiment on SK-OV-3, 7.64 µM (inactive); in the experiment on SNB-19, 24.4 µM (inactive); in the experiment on SR, 2.9 µM (inactive). Besides, the GI50 was 19.3 µM (inactive) in the experiment with SW-620 and 0.0887 µM (active) in the experiment with UO-31.
For `O=c1c2nc(-c3ccccc3)oc2n(-c2ccccc2)c(=O)n1-c1ccccc1`, the GI50 is 17.5 µM (inactive) with 786-0; 28.4 µM (inactive) in the experiment on BT-549; 8.18 µM (inactive) in the experiment on CAKI-1; 82.2 µM (inactive) in the experiment with DU-145; 17.5 µM (inactive) with HOP-62; 38.5 µM (inactive) in the experiment with LOX IMVI. The GI50 in the experiment with M14 was > 46.5 µM (inactive); in the experiment on MCF7, 45.7 µM (inactive); in the experiment on MDA-MB-231, 29.3 µM (inactive); in the experiment on NCI-H23, 43.2 µM (inactive); with NCI-H460 it was 31.8 µM (inactive); with NCI/ADR-RES it was 19.1 µM (inactive). Also, the GI50 in the experiment with PC-3 is 44.4 µM (inactive); with SK-MEL-28, > 100 µM (inactive); in the experiment on SK-MEL-5, 23.7 µM (inactive); with SK-OV-3, 21.5 µM (inactive); in the experiment on SNB-19 it was 20.7 µM (inactive); in the experiment on SR, > 31.6 µM (inactive). The values for the GI50 in the experiment with SW-620 and in the experiment on UO-31 were > 46.5 µM (inactive) and 22 µM (inactive), respectively.
For the compound `O=C1OS2(OCc3cccc4cccc2c34)c2ccccc21` (centres undefined), the GI50 with 786-0, in the experiment on BT-549, in the experiment with CAKI-1, with DU-145, with HOP-62 and with LOX IMVI was > 100 µM (inactive) throughout. The GI50 with M14, in the experiment with MCF7, in the experiment on MDA-MB-231, with NCI-H23, in the experiment with NCI-H460 and in the experiment with NCI/ADR-RES was > 100 µM (inactive) each time. For the same compound, the GI50 in the experiment on PC-3, in the experiment with SK-MEL-28, with SK-MEL-5, in the experiment on SK-OV-3, with SNB-19 and in the experiment with SR was > 100 µM (inactive) in each case. The GI50 in the experiment with SW-620 and with UO-31 was > 100 µM (inactive) in each case.
Turning to `CC(C)(C)C(=O)OCC1CCC[N+]2(C)CCCCC12` (centres undefined), the GI50 in the experiment with 786-0, with BT-549, in the experiment on CAKI-1, in the experiment on DU-145, in the experiment with HOP-62 and with LOX IMVI was > 100 µM (inactive) each time. Moreover, the GI50 in the experiment on M14, with MCF7, in the experiment with MDA-MB-231, in the experiment on NCI-H23, in the experiment with NCI-H460 and with NCI/ADR-RES was > 100 µM (inactive) throughout. Besides, the GI50 in the experiment on PC-3, in the experiment on SK-MEL-28, in the experiment on SK-MEL-5, in the experiment on SK-OV-3, in the experiment with SNB-19 and in the experiment with SR was > 100 µM (inactive) in each case. For the same compound, the GI50 in the experiment on SW-620 and in the experiment on UO-31 was > 100 µM (inactive) throughout.
With `Cc1cc(NCC2CC/C(=C\C=C\c3ccccc3)C2=O)no1` (centres undefined), the GI50 in the experiment on 786-0, in the experiment on BT-549, with CAKI-1, in the experiment on DU-145, in the experiment on HOP-62 and in the experiment with LOX IMVI was > 100 µM (inactive) in each case. Also, the GI50 in the experiment on M14 is > 100 µM (inactive); in the experiment on MCF7 it was 63.4 µM (inactive); with MDA-MB-231, 98.4 µM (inactive); in the experiment on NCI-H23 it was > 100 µM (inactive); with NCI-H460 it was > 100 µM (inactive); in the experiment on NCI/ADR-RES, 40.5 µM (inactive). Besides, the GI50 in the experiment on PC-3 was > 100 µM (inactive); with SK-MEL-28, > 100 µM (inactive); in the experiment on SK-MEL-5 it was 94.4 µM (inactive); in the experiment on SK-OV-3 it was > 100 µM (inactive); with SNB-19, > 100 µM (inactive); in the experiment on SR, 36.9 µM (inactive). The GI50 with SW-620 is > 100 µM (inactive); in the experiment with UO-31 it was 51.3 µM (inactive).
Turning to `Cn1c(=O)n(CC(Br)CBr)c(=O)n(CC(Br)CBr)c1=O` (centres undefined), the GI50 with 786-0 is 38.1 µM (inactive); in the experiment on BT-549 it was 67.9 µM (inactive); in the experiment on CAKI-1, 85.3 µM (inactive); in the experiment with DU-145, 71.3 µM (inactive); in the experiment on HOP-62, > 100 µM (inactive); with LOX IMVI it was 18.4 µM (inactive). Further, the GI50 is 24.3 µM (inactive) in the experiment on M14; 45.8 µM (inactive) with MCF7; 33.7 µM (inactive) in the experiment with MDA-MB-231; 36 µM (inactive) with NCI-H23; 33.4 µM (inactive) with NCI-H460; 40.5 µM (inactive) in the experiment on NCI/ADR-RES. The GI50 with PC-3 was 31.8 µM (inactive); in the experiment on SK-MEL-28, 39.7 µM (inactive); with SK-MEL-5, 16.5 µM (inactive); in the experiment with SK-OV-3 it was > 100 µM (inactive); with SNB-19, 75.7 µM (inactive); in the experiment with SR, 18.4 µM (inactive). Moreover, the GI50 with SW-620 is 30.9 µM (inactive); with UO-31, 25.5 µM (inactive).
On to `O=C(O)[C@@H]1NC[C@H]2C(Br)=NO[C@H]21`, for which the GI50 in the experiment on 786-0, in the experiment on BT-549, in the experiment on CAKI-1, with DU-145, with HOP-62 and in the experiment with LOX IMVI was > 100 µM (inactive) throughout. Further, the GI50 in the experiment on M14 is > 100 µM (inactive); in the experiment on MCF7 it was 86.9 µM (inactive); with MDA-MB-231, > 100 µM (inactive); with NCI-H23 it was > 100 µM (inactive); with NCI-H460, 78.2 µM (inactive); in the experiment on NCI/ADR-RES, > 100 µM (inactive). Moreover, the GI50 was > 100 µM (inactive) in the experiment with PC-3; > 100 µM (inactive) in the experiment with SK-MEL-28; 69.5 µM (inactive) in the experiment on SK-MEL-5; > 100 µM (inactive) in the experiment with SK-OV-3; > 100 µM (inactive) in the experiment with SNB-19; 23.4 µM (inactive) in the experiment with SR. Moreover, the GI50 in the experiment with SW-620 and in the experiment with UO-31 was > 100 µM (inactive) each time.
For `CN(C)CCCNc1ccc2nnn3c4ccc(OC(=O)c5ccc([N+](=O)[O-])cc5)cc4c(=O)c1c23`, the GI50 with 786-0 was 1.52 µM (inactive); with BT-549, 16.4 µM (inactive); in the experiment on CAKI-1 it was 0.649 µM (active); in the experiment on DU-145 it was 2.61 µM (inactive); in the experiment on HOP-62, 3.54 µM (inactive); in the experiment with LOX IMVI, 1.8 µM (inactive). In addition, the GI50 in the experiment on M14 was 13 µM (inactive); with MCF7 it was 2.27 µM (inactive); in the experiment with MDA-MB-231, 9.04 µM (inactive); in the experiment with NCI-H23 it was 6.73 µM (inactive); in the experiment on NCI-H460, 0.467 µM (active); in the experiment with NCI/ADR-RES it was 8.2 µM (inactive). Moreover, the GI50 in the experiment with PC-3 was 2.74 µM (inactive); in the experiment with SK-MEL-28, 13.7 µM (inactive); in the experiment with SK-OV-3, 6.98 µM (inactive); in the experiment with SNB-19, 2.95 µM (inactive); in the experiment with SR, 0.574 µM (active); with SW-620 it was 2.32 µM (inactive). Besides, the GI50 in the experiment with UO-31 was 4.67 µM (inactive).

(Values after ChEMBL document CHEMBL1201862, “PubChem BioAssay data set” (2004).)
